According to article PMC4919375, “Improved in vivo antitumor effect of a daunorubicin - GnRH-III bioconjugate modified by apoptosis inducing agent butyric acid on colorectal carcinoma bearing mice” (Investigational New Drugs, 2016):

Columns and labels:
NSG healthy mice = test: Chronic toxicity of daunorubicin on NSG healthy mice; format: in vivo, mouse
Protocol: NSG adult male mice, weighing 26–34 g, were used. Daunorubicin was dissolved in distilled water at a concentration that allowed the dose to be given in a volume of 0.1 mL/10 g body weight. In this experiment, each group consisted of 3 mice, which were treated by intraperitoneal (i.p.) administration on days 1, 4, 8, 12 and 16. The toxicity was assessed on the basis of lifespan and body weight and the survival time was followed for 20 days.

[1] = system: HT-29 orthotopic primary human colon carcinoma; test: Tumor growth inhibition, orthotopic HT-29 human colon carcinoma in NSG mice; format: in vivo, mouse; conditions: orthotopic HT-29 in NSG mice, Dau 1 mg/kg i.v. weekly x7, 7 mice/group; for Tumor growth inhibition compared to the control group: tumor weight on day 50, bioconjugates 15 mg Dau content/kg i.v. x5 then 7.5 mg Dau content/kg i.p. x8, twice a week; for Tumor weight on day 50 after tumor transplantation: relative to control, bioconjugates 15 mg Dau content/kg i.v. x5 then 7.5 mg/kg i.p. x8, mean
From the text: Female NSG mice, weighing 24–28 g, were used in this study. The xenografts were established by subcutaneous injection of ca. 10^6 HT-29 (GnRH receptor positive) human colon carcinoma cells, which were from ATCC and cultured according to their standards. The mice with palpable tumors were killed by cervical-dislocation, disinfected with iodine, and the subcutaneous tumor was dissected out aseptically. Tumor pieces of 2–3 mm^3 were transplanted under aseptic conditions, orthotopically, into narcotized NSG mice.
For direct implantation, mice were anesthetized (narcotic mixture: tiletamine, zolazepam, xylazine, butorphanol) and the abdomen was sterilized with iodine and alcohol swabs. A small midline incision (0.5 cm) was made and the colorectal part of the intestine was exteriorized. Serosa of the site where the tumor pieces were to be implanted was removed. A piece of 2 mm^3 HT-29 human colon tumor was implanted on the top of the animal intestine; an 8/0 surgical (polypropylene) suture was used to suture it on the wall of the intestine. The intestine was returned to the abdominal cavity and the abdominal wall was closed with 4/0 surgical (polyglycolic acid) sutures. The wound was sterilized with iodine and alcohol swab again and the animals were kept in a sterile environment. For pain release and rehydration, mice were treated s.c. with 100 mg/kg algopyrine in Ringer solution containing 5 % glucose. On the next day, no signs of pain and stress of mice were observed.
(§1) Based on the results of the chronic toxicity study, we used only 1 mg (1.773 μmol)/kg free Dau, weekly, in the Dau treated group. Thirteen treatments were applied from the day 5 after tumor transplantation until the day 50 in the groups treated with the bioconjugates (every Monday and Thursday). The treatments were performed by i.v. (intravenous) or i.p. administration; the compounds were dissolved in distilled water (0.1 mL/10 g body weight).
In this experiment, 7 mice/group were used for the treatment with the bioconjugates (GnRH-III[^4Lys(Ac),^8Lys(Dau = Aoa)] and GnRH-III[^4Lys(Bu),^8Lys(Dau = Aoa)]) as well as in the control group.
The bioconjugates were administered at different doses during the treatment period. In the first five treatments, they were i.v. administered, at a dose of 28.435 μmol/kg body weight (15 mg Dau content in the bioconjugate/kg). From the 6th to the 13th treatment, they were i.p. administered at a dose of 14.217 μmol/kg body weight (7.5 mg Dau content in the bioconjugate/kg). The first five doses represented the initial round of treatments, which was followed by the maintenance therapy. […]
After that, the tumors were removed and the tumor weight was determined in all cases. […]

liver = test: Macroscopic liver toxicity (liver weight); format: in vivo, mouse; conditions: Dau 1 mg/kg i.v. weekly x7; for Liver weight on day 50 after tumor transplantation: relative to control, HT-29 bearing NSG mice, bioconjugates 15 then 7.5 mg Dau content/kg twice a week, mean
Protocol: as §1
(§2) The bioconjugates were administered at different doses during the treatment period. In the first five treatments, they were i.v. administered, at a dose of 28.435 μmol/kg body weight (15 mg Dau content in the bioconjugate/kg). From the 6th to the 13th treatment, they were i.p. administered at a dose of 14.217 μmol/kg body weight (7.5 mg Dau content in the bioconjugate/kg). The first five doses represented the initial round of treatments, which was followed by the maintenance therapy. In the maintenance treatments, 5 % glucose solution instead of distilled water was used, in order to minimize the harmful effects of tfa salts that were present in the lyophilized bioconjugates.
(§3) The mice from all groups were sacrificed by deadly overslept cocktail (0.3 mL/mouse concentrated nembutal (pentobarbitone) solution), on day 50 after tumor transplantation.

heart = test: Liver- and cardiotoxicity, histological examination and side effects; format: in vivo, mouse; conditions: at the applied doses; liver weight, hematoxylin and eosin histology of heart, light microscopy
From the text: The removed and fixed tissue samples were dehydrated in a graded series of ethanol, infiltrated with xylene and embedded into paraffin. Histological sections were stained with Harris hematoxylin and eosin (10:1, v/v, 1 % solutions) in acidified 70 % ethanol and mounted. The histological samples were examined under a light microscope (Olympus CH30, Olympus Optical, Japan).

[2] = system: HT-29 orthotopic primary human colon carcinoma; test: Macroscopic metastases on different organs; format: in vivo, mouse; conditions: orthotopic HT-29 in NSG mice, day 50; 7 animals in each group
Protocol: as §1, §2, §3

[3] = system: HT-29 orthotopic primary human colon carcinoma; test: Proliferative index in orthotopic HT-29 tumor tissues (BrdU); format: in vivo, mouse; conditions: orthotopic HT-29 in NSG mice, BrdU positive cells; relative to control; mean
Protocol: (§4) Before ending the experiment (30 min prior to sacrificing the mice), the tumor bearing animals were injected i.p. with 5-bromo-2 V-deoxyuridine (BrdU, 200 mg/kg; Sigma-Aldrich Kft, Budapest, Hungary). After 6 h, 5–7 μm thick tissue sections were excised from the newly frozen tumors and used for the detection of BrdU positive cells using an anti-BrdU monoclonal antibody (Becton Dickinson Hungary Kft., Budapest, Hungary), according to the manufacturer’s protocol. Positive cells were visualized with TRITC-conjugated anti-mouse IgG (1:100, Sigma). Endothelial cells were distinguished from tumor cells by treating the samples with rat anti-mouse CD31 antibody and labelled with biotinylated anti-rat IgG and streptavidin-FITC (Vector Laboratories, Burlingame, CA). The nuclei were stained with the Hoechst 33,342 dye (Molecular Probes, Eugene, OR). The number of labelled HT-29 tumor cells and the quantity of CD31-positive samples were determined in two different tumors by microscopic analysis of 6 independent regions. The vascularization extent of primary tumors was determined by microscopic analysis of two different living tumors, where four independent areas of living cells were counted and the percentage of separated endothelial cells covering a 10× magnification field of vision was calculated.

[4] = system: HT-29 orthotopic primary human colon carcinoma; test: Vascularization in orthotopic HT-29 tumor tissues (CD31); format: in vivo, mouse; conditions: orthotopic HT-29 in NSG mice, CD31-positive endothelial cells; control 100 %; mean
Protocol: as §4

GnRH receptor = conditions: butyrated compared with acetylated bioconjugate; cited from earlier work
From the text: (§5) In our research, lamprey GnRH-III (Glp-His-Trp-Ser-His-Asp-Trp-Lys-Pro-Gly-NH2, where Glp is pyroglutamic acid) has been employed as a key molecule for drug targeting. […] Thus, hormonal side effects in case of targeted tumor therapy using GnRH-III as a homing device are expected to be insignificant, this feature being important in the treatment of hormone independent tumors like colorectal cancer. Considering that lysine in position 8 of GnRH-III can be us ...

[5] = system: HT-29 human colon cancer cells; conditions: cited from earlier work
From the text: as §5

[6] = butyrated version compared with acetylated; previous in vitro studies; cited from earlier work
From the text: In our research, GnRH-III peptide was mainly employed as a targeting moiety, due to its low endocrine effect in mammals and significant antiproliferative effect on different types of cancer cells. […] However, the efficacy of the bioconjugates was highly dependent on the tumor type and whether this was subcutaneously or orthotopically developed in mice. Orthotopically developed tumors represent the ...

Compound	Tumor growth inhibition compared to the control group [1]	Tumor weight on day 50 after tumor transplantation [1] [%]	Liver weight on day 50 after tumor transplantation (liver) [%]	Metastasis on diaphragm, animals affected/animals in group [2]	Metastasis on diaphragm, percent of animals [2] [%]	Metastasis on liver, animals affected/animals in group [2]	Metastasis on liver, percent of animals [2] [%]	Metastasis on lung, animals affected/animals in group [2]	Metastasis on lung, percent of animals [2] [%]	Metastasis on lymph node, animals affected/animals in group [2]	Metastasis on pancreas, animals affected/animals in group [2]	Metastasis on pancreas, percent of animals [2] [%]	Metastasis on spleen, animals affected/animals in group [2]	Metastasis on spleen, percent of animals [2] [%]	Proliferation index (%) [3] [%]	other results
COc1cccc2c1C(=O)c1c(O)c3c(c(O)c1C2=O)C[C@@](O)(C(C)=O)C[C@@H]3O[C@H]1C[C@H](N)[C@H](O)[C@H](C)O1 [Daunorubicin]	about 30%	70.3	89.1	3/7	42.9	7/7	100	7/7	100	4/7	0/7	0	0/7	0	98.6	Day on which the first animal died (NSG healthy mice; 1 mg/kg i.p. on days 1, 4, 8, 12 and 16, NSG healthy male mice, 3 mice/group, experiment stopped on day 20): 20 days; Mice died (NSG healthy mice; 2 mg/kg i.p. on days 1, 4, 8, 12 and 16, died on day 13 after the fourth treatment, NSG healthy male mice, 3 mice/group): 2 of 3; Body weight change (NSG healthy mice; 1 or 2 mg/kg i.p. on days 1, 4, 8, 12 and 16, both doses, NSG healthy male mice): significant loss of weight; Body weight of the animals at the end (NSG healthy mice; decreased from ~30 g during 20 days, i.p. on days 1, 4, 8, 12 and 16, NSG healthy male mice): ~ 20 g; Maximum tolerated dose (NSG healthy mice; immunodeficient tumor bearing mice): 1–2 mg/kg/week; Decrease of average liver weight (liver; vs control, day 50, not significant): about 11%; Liver- or cardiotoxicity (heart): neither the bioconjugates nor the free daunorubicin showed any liver- or cardiotoxicity; Vascularization (number of blood vessels), to the control [4]: 112%
GnRH-III[^4Lys(Bu),^8Lys(Dau = Aoa)]	~ 40%	60.6	105.0	3/7	42.9	7/7	100	7/7	100	3/7	0/7	0	1/7	14.3	84.5	Metastasis on lymph node, percent of animals [2]: 42.9%; Binding to the GnRH receptor (affinity) (GnRH receptor): higher affinity; IC50 [5]: 2.2 ± 0.6 µM; Cellular uptake [6]: higher receptor binding affinity and cellular uptake
